# Experimental data from the supplement of paper PMC10307832.
# Compound: CC1=NN=C(O1)C2=NN=C(C=C2)N3CCC(CC3)OC4=C(C=CC(=C4)F)Cl + CS(=O)(=O)CCNCc1ccc(-c2ccc3ncnc(Nc4ccc(OCc5cccc(F)c5)c(Cl)c4)c3c2)o1 [Lapatinib] (partner 2 µM)
# Test: relative viability (nuclei count vs DMSO), 5 days (fraction); higher = more cells survive
# Details: first compound 0.253 µM
# Procedure, shortened: (§1)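 Lung cancer cell lines, seeded in 1536-well plates, were treated the following day by pin tool with a single drug or with five library-drug doses (not always all listed) in √10 steps on top of a fixed anchor-drug dose. Cells were fixed and nuclei stained in one step after 5 days, and nuclei were counted. Relative viability is the nuclei count for treated wells divided by that for vehicle wells, reported as medians of duplicate plates.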
row,Cell Line,relative viability
1,SK-LU-1,0.703
2,NCI-H1703,1.06
3,EBC-1,0.208
4,NCI-H1792,0.417
5,NCI-H2087,0.618
6,SW 1573,1.03
7,NCI-H727,0.815
8,NCI-H2405,0.756
9,EMC-BAC-2,0.837

# Same assay, conditions: first compound 0.8 µM
row,Cell Line,relative viability
1,SK-LU-1,0.749
2,NCI-H1703,0.795
3,EBC-1,0.191
4,NCI-H1792,0.436
5,NCI-H2087,0.56
6,NCI-H596,0.845
7,SW 1573,1.09
8,NCI-H727,0.721
9,NCI-H2405,0.809
10,EMC-BAC-2,0.843

# Same assay, conditions: first compound 2.53 µM
row,Cell Line,relative viability
1,SK-LU-1,0.772
2,NCI-H1703,0.904
3,EBC-1,0.182
4,NCI-H1792,0.404
5,NCI-H2087,0.554
6,NCI-H596,0.932
7,NCI-H1355,0.869
8,SW 1573,0.877
9,NCI-H727,1.01
10,NCI-H2405,0.859
11,EMC-BAC-2,0.854

# Same assay, conditions: first compound 8 µM
row,Cell Line,relative viability
1,SK-LU-1,0.807
2,NCI-H1703,0.76
3,EBC-1,0.197
4,NCI-H1792,0.502
5,NCI-H2087,0.51
6,NCI-H596,0.888
7,NCI-H1355,0.78
8,SW 1573,0.932
9,NCI-H727,0.795
10,NCI-H2405,0.754
11,EMC-BAC-2,0.647

# Compound: CC(C)C[C@@H](C(=O)N[C@H](C(=O)OC1CCCC1)c1ccccc1)[C@H](O)C(=O)NO [Tosedostat] + CS(=O)(=O)N1CCN(Cc2cc3nc(-c4cccc5[nH]ncc45)nc(N4CCOCC4)c3s2)CC1 [Pictilisib] (partner 1 µM)
# Test: as above
# Details: first compound 0.02 µM
# Procedure, shortened: as §1
row,Cell Line,relative viability
1,SK-LU-1,0.688
2,NCI-H1703,0.229
3,EBC-1,0.361
4,NCI-H1792,0.282
5,NCI-H2087,1.09
6,NCI-H596,0.424
7,NCI-H1355,0.449
8,SW 1573,0.477
9,LCLC-103H,0.733
10,NCI-H727,0.36
11,NCI-H2405,0.578
12,EMC-BAC-2,0.614
13,ChaGo-K-1,1.1
14,NCI-H441,0.549

# Same assay, conditions: first compound 0.06325 µM
row,Cell Line,relative viability
1,SK-LU-1,0.728
2,NCI-H1703,0.253
3,EBC-1,0.417
4,NCI-H1792,0.279
5,NCI-H2087,0.791
6,NCI-H596,0.471
7,NCI-H1355,0.441
8,SW 1573,0.485
9,LCLC-103H,0.567
10,NCI-H727,0.267
11,NCI-H2405,0.499
12,EMC-BAC-2,0.544
13,ChaGo-K-1,0.813
14,NCI-H441,0.443

# Same assay, conditions: first compound 0.2 µM
row,Cell Line,relative viability
1,SK-LU-1,0.505
2,NCI-H1703,0.268
3,EBC-1,0.232
4,NCI-H1792,0.272
5,NCI-H2087,0.946
6,NCI-H596,0.385
7,NCI-H1355,0.352
8,SW 1573,0.484
9,LCLC-103H,0.666
10,NCI-H727,0.276
11,NCI-H2405,0.478
12,EMC-BAC-2,0.504
13,ChaGo-K-1,0.754
14,NCI-H441,0.461

# Same assay, conditions: first compound 0.6325 µM
row,Cell Line,relative viability
1,SK-LU-1,0.604
2,NCI-H1703,0.222
3,EBC-1,0.266
4,NCI-H1792,0.232
5,NCI-H2087,0.529
6,NCI-H596,0.446
7,NCI-H1355,0.329
8,SW 1573,0.485
9,LCLC-103H,0.714
10,NCI-H727,0.373
11,NCI-H2405,0.467
12,EMC-BAC-2,0.544
13,ChaGo-K-1,0.812
14,NCI-H441,0.379

# Same assay, conditions: first compound 2 µM
row,Cell Line,relative viability
1,SK-LU-1,0.485
2,NCI-H1703,0.245
3,EBC-1,0.281
4,NCI-H1792,0.276
5,NCI-H2087,0.684
6,NCI-H596,0.388
7,NCI-H1355,0.354
8,SW 1573,0.388
9,LCLC-103H,0.54
10,NCI-H727,0.29
11,NCI-H2405,0.445
12,EMC-BAC-2,0.526
13,ChaGo-K-1,0.638
14,NCI-H441,0.328

# Compound: CC(C)C[C@@H](C(=O)N[C@H](C(=O)OC1CCCC1)c1ccccc1)[C@H](O)C(=O)NO [Tosedostat]
# Test: relative viability (nuclei count vs DMSO), 5 days (fraction); higher = more cells survive
# Details: 0.02 µM
# Procedure, shortened: (§2)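 For viability, nuclei in each treated well were divided by nuclei in vehicle wells and the median across plates was taken. Lung cancer cell lines in 1536-well plates were pinned with five library-drug doses (not always all listed) spaced by √10, cultured 5 days without medium change, and imaged at 4× after Hoechst staining, with plates passing only at control CV below 25% and at least one doubling.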
row,Cell Line,relative viability
1,NCI-H522,0.908
2,NCI-H1623,1.06
3,SK-LU-1,1.1
4,NCI-H1703,0.995
5,EBC-1,0.994
6,NCI-H1792,1.01
7,NCI-H2087,1.21
8,NCI-H596,1.03
9,NCI-H1355,0.961
10,SW 1573,1.07
11,LCLC-103H,1.06
12,NCI-H727,0.914
13,NCI-H2405,1.16
14,EMC-BAC-2,1.09
15,NCI-H2342,0.954
16,ChaGo-K-1,1.07
17,SW 900,0.887
18,NCI-H1648,1.01
19,NCI-H441,1.12

# Same assay, conditions: 0.06325 µM
row,Cell Line,relative viability
1,NCI-H522,1.01
2,NCI-H1623,0.895
3,SK-LU-1,1.09
4,NCI-H1703,0.789
5,EBC-1,0.934
6,NCI-H1792,1.11
7,NCI-H2087,1.06
8,NCI-H596,1.08
9,NCI-H1355,0.936
10,SW 1573,0.95
11,LCLC-103H,0.95
12,NCI-H727,0.899
13,NCI-H2405,1
14,EMC-BAC-2,1.16
15,NCI-H2342,0.998
16,ChaGo-K-1,0.975
17,SW 900,0.952
18,NCI-H1648,0.923
19,NCI-H441,0.92

# Same assay, conditions: 0.2 µM
row,Cell Line,relative viability
1,NCI-H522,0.897
2,NCI-H1623,0.907
3,SK-LU-1,0.92
4,NCI-H1703,0.763
5,EBC-1,0.946
6,NCI-H1792,0.963
7,NCI-H2087,1.11
8,NCI-H596,1.12
9,NCI-H1355,1.04
10,SW 1573,0.881
11,LCLC-103H,1
12,NCI-H727,0.696
13,NCI-H2405,0.991
14,EMC-BAC-2,0.952
15,NCI-H2342,0.986
16,ChaGo-K-1,0.969
17,SW 900,0.855
18,NCI-H1648,0.881
19,NCI-H441,0.749

# Same assay, conditions: 0.6325 µM
row,Cell Line,relative viability
1,NCI-H522,1.05
2,NCI-H1623,0.798
3,SK-LU-1,0.938
4,NCI-H1703,0.572
5,EBC-1,0.785
6,NCI-H1792,0.828
7,NCI-H2087,0.819
8,NCI-H596,1.01
9,NCI-H1355,0.838
10,SW 1573,0.85
11,LCLC-103H,1.11
12,NCI-H727,0.819
13,NCI-H2405,0.95
14,EMC-BAC-2,0.919
15,NCI-H2342,0.944
16,ChaGo-K-1,1.02
17,SW 900,0.767
18,NCI-H1648,0.935
19,NCI-H441,0.69

# Same assay, conditions: 2 µM
row,Cell Line,relative viability
1,NCI-H522,1.01
2,NCI-H1623,0.965
3,SK-LU-1,0.854
4,NCI-H1703,0.726
5,EBC-1,0.683
6,NCI-H1792,1.07
7,NCI-H2087,0.942
8,NCI-H596,0.967
9,NCI-H1355,0.905
10,SW 1573,0.876
11,LCLC-103H,1.07
12,NCI-H727,0.95
13,NCI-H2405,0.92
14,EMC-BAC-2,0.811
15,NCI-H2342,0.94
16,ChaGo-K-1,0.771
17,SW 900,0.669
18,NCI-H1648,0.578
19,NCI-H441,0.731

# Compound: CC1=NN=C(O1)C2=NN=C(C=C2)N3CCC(CC3)OC4=C(C=CC(=C4)F)Cl
# Test: as above
# Details: 0.253 µM
# Procedure, shortened: as §2
row,Cell Line,relative viability
1,NCI-H522,0.964
2,NCI-H1623,0.897
3,SK-LU-1,0.935
4,NCI-H1703,0.786
5,EBC-1,0.663
6,NCI-H1792,0.748
7,NCI-H2087,0.771
8,NCI-H596,0.982
9,NCI-H1355,0.685
10,SW 1573,0.894
11,LCLC-103H,0.604
12,NCI-H727,0.817
13,NCI-H2405,0.577
14,EMC-BAC-2,0.98
15,NCI-H2342,0.678
16,ChaGo-K-1,0.736
17,NCI-H1648,0.435
18,NCI-H441,0.672

# Same assay, conditions: 0.8 µM
row,Cell Line,relative viability
1,NCI-H522,0.933
2,NCI-H1623,0.734
3,SK-LU-1,0.783
4,NCI-H1703,0.873
5,EBC-1,0.735
6,NCI-H1792,0.741
7,NCI-H2087,0.569
8,NCI-H596,0.806
9,NCI-H1355,0.592
10,SW 1573,0.981
11,LCLC-103H,0.71
12,NCI-H727,0.728
13,NCI-H2405,0.495
14,EMC-BAC-2,0.872
15,NCI-H2342,0.675
16,ChaGo-K-1,0.681
17,SW 900,0.545
18,NCI-H1648,0.462
19,NCI-H441,0.388

# Same assay, conditions: 2.53 µM
row,Cell Line,relative viability
1,NCI-H522,0.957
2,NCI-H1623,0.918
3,SK-LU-1,0.943
4,NCI-H1703,0.933
5,EBC-1,0.81
6,NCI-H1792,0.833
7,NCI-H2087,0.659
8,NCI-H596,1.06
9,NCI-H1355,0.915
10,SW 1573,0.942
11,LCLC-103H,0.705
12,NCI-H727,0.981
13,NCI-H2405,0.553
14,EMC-BAC-2,0.891
15,NCI-H2342,0.604
16,ChaGo-K-1,0.687
17,SW 900,0.805
18,NCI-H1648,0.56
19,NCI-H441,0.595

# Same assay, conditions: 8 µM
row,Cell Line,relative viability
1,NCI-H522,0.955
2,NCI-H1623,0.926
3,SK-LU-1,0.722
4,NCI-H1703,0.829
5,EBC-1,0.606
6,NCI-H1792,0.846
7,NCI-H2087,0.621
8,NCI-H596,0.813
9,NCI-H1355,0.82
10,SW 1573,0.615
11,LCLC-103H,0.632
12,NCI-H727,0.785
13,NCI-H2405,0.525
14,EMC-BAC-2,0.615
15,NCI-H2342,0.525
16,ChaGo-K-1,0.671
17,SW 900,0.574
18,NCI-H1648,0.496
19,NCI-H441,0.519
